Experimental data from ChEMBL document CHEMBL1201862, “PubChem BioAssay data set” (2004).
Calls of active or inactive are those of the source. Cut-off read from the data, not from the text of the source: actives have a measured EC50 and inactives only a lower limit.

Tests used:
[1] = tested on: Streptococcus sp. 'group A'; assay: Streptococcus pyogenes SK(-)GAS viability under kanamycin – luminescence, BacTiterGlo, confirmation, counter-screen for streptokinase expression inhibitor project, dose response (AID 1900); assay type: functional, organism-based
[2] = biological target: T1, Streptokinase A (Streptococcus pyogenes serotype M1, UniProt P10520); assay: viability-normalized secreted streptokinase activity reduction – plasminogen activation absorbance, OD405, dose response (AID 1914); assay type: functional, Streptococcus pyogenes M1 GAS;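 note: secreted streptokinase activity via plasminogen activation per viability signal from cell pellet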
T1 sequence (P10520 whole entry): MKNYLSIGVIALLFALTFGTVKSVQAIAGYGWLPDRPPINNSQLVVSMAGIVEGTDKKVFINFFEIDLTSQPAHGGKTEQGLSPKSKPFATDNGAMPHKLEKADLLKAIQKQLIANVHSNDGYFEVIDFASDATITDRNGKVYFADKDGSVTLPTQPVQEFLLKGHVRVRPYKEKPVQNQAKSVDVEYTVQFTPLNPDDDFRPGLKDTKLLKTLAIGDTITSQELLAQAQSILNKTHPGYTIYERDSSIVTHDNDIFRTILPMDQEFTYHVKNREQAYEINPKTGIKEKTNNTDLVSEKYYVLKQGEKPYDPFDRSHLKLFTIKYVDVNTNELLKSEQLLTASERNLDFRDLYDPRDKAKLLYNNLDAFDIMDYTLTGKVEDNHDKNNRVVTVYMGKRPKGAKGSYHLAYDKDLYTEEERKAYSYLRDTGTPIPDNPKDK

[3] = tested on: Streptococcus; assay: GAS UMAA2166 growth inhibition – luminescence, BacTiterGlo, counter-screen for streptokinase expression inhibitor project, dose response (AID 1915); assay type: functional, organism-based;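 note: potency for reduction of bacterial viability or growth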

Structure (SMILES) | EC50 [1] | EC50 [2] | EC50 [3]
CCOc1ccc(C(=O)NC(=S)Nc2ccc(N3CCOCC3)c(Cl)c2)cc1[N+](=O)[O-] | 0.724 µM (active) | > 150 µM (not active) | 21.4 µM (active)
NC(=O)NC(=O)CSc1nc2cc([N+](=O)[O-])ccc2n1-c1cccc(C(F)(F)F)c1 | 0.301 µM (active) | > 150 µM (not active) | 19.2 µM (active)
CC(=O)c1ccc(NC(=O)CN2C(=O)/C(=C/C=C/c3ccccc3)SC2=S)cc1 |  | > 150 µM (not active) | > 150 µM (not active)
CC(=O)N1c2ccc(S(=O)(=O)N3CCC(C(=O)Nc4cc(C)ccn4)CC3)cc2CC1C (centres undefined) | > 150 µM (not active) | > 150 µM (not active) | > 150 µM (not active)
C=CCN1C(=O)NC(=O)/C(=C(/C)Nc2ccc(N(CC)CC)cc2)C1=O | 5.15 µM (active) | > 150 µM (not active) | 14 µM (active)
CCCCN1C(=O)NC(=O)/C(=C(/CC)Nc2ccc3c(c2)CCC3)C1=O | 15.9 µM (active) | 74.1 µM (active) | > 150 µM (not active)
CCc1ccc(N(CC(=O)NC2CC2)S(=O)(=O)c2ccc(C)cc2)cc1 | > 150 µM (not active) | > 150 µM (not active) | > 150 µM (not active)
CCCCNc1c(-c2ccc(-c3ccc(C(C)=O)cc3)c(OC)c2)nc2cnccn12 | 5.22 µM (active) | 114 µM (inconclusive) | 21.1 µM (active)
O=C(C[n+]1ccc2ccccc2c1)Nc1cc(C(F)(F)F)ccc1Cl | > 150 µM (not active) | > 150 µM (not active) | > 150 µM (not active)
N#Cc1c(NC(=O)CSc2nnc(Cc3ccccc3)[nH]2)oc(-c2ccccc2)c1-c1ccccc1 |  | 4.54 µM (active) | 
O=C(Nc1nc(N2C(=O)c3ccccc3C2=O)n(-c2ccccc2)n1)c1ccc(Cl)cc1 | 8.84 µM (active) | > 150 µM (not active) | 22.9 µM (active)
CC(C)(C)c1ccc(C(=O)Nc2ccc(F)cc2)s1 | > 150 µM (not active) | > 150 µM (not active) | > 150 µM (not active)
O=C(Nc1ccc2c(c1)N(S(=O)(=O)c1cccs1)CCC2)c1c(F)cccc1Cl | > 150 µM (not active) | > 150 µM (not active) | > 150 µM (not active)
COc1cc(/C=N/NC(=O)c2nnn(-c3nonc3N)c2C(C)C)ccc1OCc1ccc(F)cc1 | 8.61 µM (active) | 13.4 µM (active) | 47 µM (active)
